Measured values: EP0185346A2, “Imidazo derivatives, their preparation and medicaments containing these compounds” (Dr. Karl Thomae GmbH, priority 1984, dated 1986)

system: despinalisierten Meerschweinchen; assay: Positive inotropic effect in despinalised guinea pigs (LV-dp/dtmax, i.v. injection); assay type: in vivo; settings: Cavia porcellus, iv; 1 mg/kg i.v.; mean values, each substance tested in 3 despinalised guinea pigs; read-out: Zunahme in LV-dp/dtmax
Text: Bestimmung der positiv inotropen Wirkung an despinalisierten Meerschweinchen
Die Untersuchungen wurden an despinalisierten Meerschweinchen durchgeführt. Die Tiere wurden mit 50 % 02 + 50 % N2 beatmet. Der arterielle Blutdruck wurde in der rechten Arteria Carotis mit einem Bell and Howell Druckwandler (4-327-1) gemessen. Für die Erfassung der positiv inotropen Wirkung wurde mit einem Kathetertipmanometer (Millar PR-249) der Druck in dem linken Ventrikel (LV) gemessen. Mittels eines Differenzierers wurde LV-dp/dtmax gewonnen. Die zu untersuchenden Substanzen wurden in eine Vena jugularis injiziert. Als Lösungsmittel diente 0,9 % NaCl+Polydiol 200 (1:1).
Jede Substanz wurde an 3 Meerschweinchen überprüft. Die Dosen waren 0,1 - 3 mg/kg i.v.. Die nachfolgende Tabelle enthält die Mittelwerte bei 1 mg/kg i.v..

Compound	change in vivo at 1 mg/kg
COc1cc(OS(C)(=O)=O)ccc1-c1cn2cc[nH]c(=O)c2n1 [Substanz I, 2-(2-Methoxy-4-methylsulfonyloxy-phenyl)-7H-imidazo-[1,2-a]pyrazin-8-on]	98%
COc1cc(C#N)ccc1-c1cn2ccc(=O)[nH]c2n1 [Substanz E, 2-(2-Methoxy-4-cyano-phenyl)-8H-imidazo[1,2-a]pyrimidin-7-on]	44%
COc1ccc(-c2cn3c(=O)[nH]c(=O)[nH]c3n2)cc1 [Substanz C, 7-(4-Methoxy-phenyl)-1H,3H-imidazo[1,2-a][1.3.5]triazin-2,4-dion]	86%
CNS(=O)(=O)c1ccc(-c2cn3ccc(=O)[nH]c3n2)c(OC)c1 [Substanz G, 2-(2-Methoxy-4-methylaminosulfonyl-phenyl)-8H-imidazo-[1,2-a]pyrimidin-7-on]	75%
COc1cc(C(=O)N(C)C)ccc1-c1cn2ccc(=O)[nH]c2n1 [Substanz H, 2-(2-Methoxy-4-dimethylaminocarbonyl-phenyl)-8H-imidazo-[l,2-a]pyrimidin-7-on]	33%
CN(C)S(=O)(=O)c1ccc(-c2cn3ccc(=O)[nH]c3n2)cc1 [Substanz A]	32%
COc1cc(S(=O)(=O)N(C)C)ccc1-c1cn2ccc(=O)[nH]c2n1 [Substanz F, 2-(2-Methoxy-4-dimethylaminosulfonyl-phenyl)-8H-imidazo-[1,2-a]pyrimidin-7-on]	47%
COc1cc(OS(C)(=O)=O)ccc1-c1cn2ccc(=O)[nH]c2n1 [Substanz D, 2-(2-Methoxy-4-methylsulfonyloxy-phenyl)-8H-imidazo-[l,2-a]pyrimidin-7-on]	63%
COc1ccc(-c2cn3cc[nH]c(=O)c3n2)cc1 [Substanz B, 2-(4-Methoxy-phenyl)-7H-imidazo[1,2-a]pyrazin-8-on]	45%
